Measurements from paper PMC10818921, “Validation of Liquid Chromatography Coupled with Tandem Mass Spectrometry for the Determination of 12 Tyrosine Kinase Inhibitors (TKIs) and Their Application to Therapeutic Drug Monitoring in Adult and Pediatric Populations” (Pharmaceutics, 2023).
Read-outs that look alike come from different tables or passages of the source.

What was measured:
[1] = Stability of TKI methanolic solutions, 7 days at −20 °C; type: physicochemical; conditions: for bias, stability of TKI methanolic solutions: QCs made with 7-day-old methanolic solutions; for storage of methanolic working solutions: −20 °C for 7 days
Description: To evaluate TKI stability in methanolic solutions, the four QC levels were realized with seven-day-old solutions and were analyzed six times. The accuracy and precision of the samples have to be in conformity with less than 15% variation.

[2] = Therapeutic drug monitoring: steady-state residual plasma concentrations by LC-MS/MS; type: in vivo, human; conditions: for Concentration range CI 95% / IQR / Mean concentration / Median concentration: residual plasma concentration at steady state; for comparison of dose–weight-adjusted concentrations between adult and pediatric groups: Mann–Whitney test, p-value < 0.0001 where significant
Description: For each calibration sample, an adapted volume of working solution was added and evaporated. Then, 150 µL of IS methanolic solution was added to 50 µL of plasma sample (blank plasma for calibration sample or patient plasma) to precipitate proteins. After vortex mixing and 10 min of centrifugation, the supernatant was transferred into injection vials, and 10 µL was injected into the chromatographic system.
Chromatography was performed on a Dionex Ultimate 3000 Pump (ThermoFisher, les Ulis, France) using a Kinetex C18 Polar column (100 × 2.1 mm, 2.6 µm particle size) heated at 40 °C. The mobile phase A was made with 2 mM of ammonium formate in 0.1% formic acid in ultra-pure water and stored at +4 °C for a maximum of one week. […] The gradient was set as follows: 10 to 40% of B from 0 to 1 min, then 40 to 90% of B in 1 min, and keeping this for 2 min before resetting to 10% B in 1 min. An equilibration time of one minute at 10% mobile phase B at the end of the chromatographic run allowed the column to be equilibrated before the next analysis.
The compounds were detected using an Altis® triple quadrupole tandem mass spectrometer (ThermoFisher Scientific, Les Ulis, France) equipped with an electrospray ionization (ESI) source set in positive ionization mode with a potential of +3.5 kV. Nitrogen was used as cladding and auxiliary gas at a pressure of 30 and 10 arbitrary units (AU), respectively. The collision gas, argon, was used at a pressure of 1.5 mTorr. The temperature of the ion transfer capillary was set at 350 °C. Data were collected in multiple reaction monitoring mode (MRM) with two transitions (m/z) per compound. Xcalibur® (v 4.2.47) and LC Quan® (v 2.7.0) software (ThermoFisher Scientific) were used for data acquisition and processing.
The study was conducted in accordance with the Declaration of Helsinki and approved by the local ethics committee.
Populations treated with each TKI are described in Table 4.
Blood samples were collected in a steady state (i.e., a minimum of 2 weeks after the initiation of therapy or dose adjustment) just prior to dosing. The samples were collected in lithium heparin tubes without a separator and were immediately centrifuged, decanted, and frozen at −20 °C before LC-MS/MS analysis.
A Mann–Whitney […] was performed to compare dose–weight-adjusted concentrations between adult and pediatric groups. Results are illustrated in box-and-whiskers plots. GraphPad Prism v.8.3.0 Software (San Diego, CA, USA) was used to process and visualize data.

[3] = cited from earlier work; for Target Concentrations, Cmax / Target Concentrations, Cmin: adults
[4] = cited from earlier work
[5] = cited from earlier work; remark: listed apart in the source

Structure (SMILES)	bias, stability of TKI methanolic solutions [1] [%]	storage of methanolic working solutions [1]	Dose–weight-adjusted mean concentration ([2]; adults) [ng/mL/mg/kg]	Dose–weight-adjusted median concentration ([2]; adults) [ng/mL/mg/kg]	Concentration range CI 95% ([2]; adults)	IQR ([2]; adults)	Mean concentration ([2]; adults) [ng/mL]	Median concentration ([2]; adults) [ng/mL]	Target Concentrations, Cmax [3]	comparison of dose–weight-adjusted concentrations between adult and pediatric groups [2]	Dose–weight-adjusted mean concentration ([2]; children) [ng/mL/mg/kg]	Dose–weight-adjusted median concentration ([2]; children) [ng/mL/mg/kg]	Concentration range CI 95% ([2]; children)	IQR ([2]; children)	Mean concentration ([2]; children) [ng/mL]	Median concentration ([2]; children) [ng/mL]	Target Concentrations, Cmin [3]	also measured
C=CC(=O)Nc1cc(Nc2nccc(-c3c[nH]c4ccccc34)n2)c(OC)cc1N(C)CCN(C)C [AZ5104]	≥ 15	must be prepared extemporaneously	25.8	21.7	[16–56] ng/mL	[11–47] ng/mL	32	25										
CCc1cc2c(cc1N1CCC(N3CCOCC3)CC1)C(C)(C)c1[nH]c3cc(C#N)ccc3c1C2=O [Alectinib, alectinib]			17.3	16.7	[292–424] ng/mL	[302–408] ng/mL	358	346										
Cn1cnc2c(F)c(Nc3ccc(Br)cc3F)c(C(=O)NOCCO)cc21 [Binimetinib, binimetinib]			48.8	41.6	[51–64] ng/mL	[38–69] ng/mL	57.4	52	Cmax = 654 ng/mL	higher concentrations of binimetinib in adults	17.5	14.6	[37–204] ng/mL	[62–143] ng/mL	120	100		frozen stability in plasma [4]: at least 30 days
O=C(c1ccc(F)c(F)c1Nc1ccc(I)cc1F)N1CC(O)([C@@H]2CCCCN2)C1 [Cobimetinib, cobimetinib]			145.7	138.1	[24–94] ng/mL	[46.5–83] ng/mL	59.3	70	Cmax = 270 ng/mL	not statistically different	85.4	62.6	[74–118] ng/mL	[34–114] ng/mL	96.3	64.3		stable in plasma ([4]; −40 °C): more than 20 weeks
C[C@@H](Oc1cc(-c2cnn(C3CCNCC3)c2)cnc1N)c1c(Cl)ccc(F)c1Cl [Crizotinib, crizotinib]	≥ 15	must be prepared extemporaneously															Cmin ≥ 235 ng/mL	stability at −20 °C for 7 days ([1]; methanolic solutions, CQ3): not stable; stability in plasma [4]: minimum of one month
CC(C)(C)c1nc(-c2cccc(NS(=O)(=O)c3c(F)cccc3F)c2F)c(-c2ccnc(N)n2)s1 [Dabrafenib, dabrafenib]			28.3	14	[88–122] ng/mL	[29–114] ng/mL	105.3	53.5		not statistically different	62.3	19.1	[26–178] ng/mL	[15–131] ng/mL	102.3	18.4	Cmin ≥ 15 ng/mL	stable in plasma ([4]; −40 °C): more than 20 weeks; adverse effects described [5]: Skin disorders (acneiform eruptions and rash)
COC(=O)N[C@@H](C)CNc1nccc(-c2cn(C(C)C)nc2-c2cc(Cl)cc(NS(C)(=O)=O)c2F)n1 [Encorafenib, encorafenib]			3.4	2.6	[16–21] ng/mL	[10–22] ng/mL	18.6	15	Cmax = 3100 ng/mL									frozen stability in plasma [4]: at least 30 days
C[C@H]1Oc2cc(cnc2N)-c2c(nn(C)c2C#N)CN(C)C(=O)c2ccc(F)cc21 [Lorlatinib, lorlatinib]									Cmax = 575 ng/mL									stable in plasma ([4]; −30 °C): at least 2 months
C=CC(=O)Nc1cc(Nc2nccc(-c3cn(C)c4ccccc34)n2)c(OC)cc1N(C)CCN(C)C [Osimertinib, osimertinib]	≥ 15	must be prepared extemporaneously	196.7	211.4	[122–320] ng/mL		221	207										Target Concentrations, Cmin ([3]; 40 mg dosage): ≥ 90 ng/mL; Target Concentrations, Cmin ([3]; 80 mg dosage): ≥ 160 ng/mL; stability in plasma [4]: minimum of one month
CC(=O)Nc1cccc(-n2c(=O)n(C3CC3)c(=O)c3c(Nc4ccc(I)cc4F)n(C)c(=O)c(C)c32)c1 [Trametinib, trametinib]			443.8	386.3	[11–13] ng/mL	[8–14] ng/mL	12.4	11		significantly lower in the adult group than in the pediatric group	578.4	538.5	[11–14] ng/mL	[6.5–17] ng/mL	12.6	9.7	Cmin ≥ 10.6 ng/mL	minimum effective concentrations [3]: 10 ng/mL; serum stability ([4]; −20 °C): 20 months; toxicity reported ([5]; children treated for glioma): signs of cutaneous toxicity; adverse effects described [5]: Skin disorders (acneiform eruptions and rash)
